Data: ChEMBL document CHEMBL1127875 (Bioorg Med Chem Lett, 1994)

Organism: Oryctolagus cuniculus
Assay: pA2 value determined by their ability to block AngII induced contractile responses in rabbit aorta strips
Type: functional
Settings: read-out: pA2 (converted)
`CCCCCCC(C(=O)O)n1cnc(NC(=O)c2ccccc2C(=O)O)c1` (stereo unspecified) gave a Kb of 100 nM.
Compound `CCCCCCC(C(=O)O)n1cnc(NC(=O)c2cccc(O)c2C(=O)O)c1` (stereo unspecified) has a Kb of 100 nM.
Compound `CCCCCCC(C(=O)O)n1cnc(NC(=O)c2ccccc2C2N=NN=N2)c1` (stereo unspecified) has a Kb of 100 nM.

What follows are compounds tested against T1, Type-1 angiotensin II receptor (Oryctolagus cuniculus) (UniProt P34976) (assay: In vitro antagonism of Angiotensin II receptor, type 1 in isolated rabbit thoracic aorta). Settings: not given.
T1 sequence (whole entry): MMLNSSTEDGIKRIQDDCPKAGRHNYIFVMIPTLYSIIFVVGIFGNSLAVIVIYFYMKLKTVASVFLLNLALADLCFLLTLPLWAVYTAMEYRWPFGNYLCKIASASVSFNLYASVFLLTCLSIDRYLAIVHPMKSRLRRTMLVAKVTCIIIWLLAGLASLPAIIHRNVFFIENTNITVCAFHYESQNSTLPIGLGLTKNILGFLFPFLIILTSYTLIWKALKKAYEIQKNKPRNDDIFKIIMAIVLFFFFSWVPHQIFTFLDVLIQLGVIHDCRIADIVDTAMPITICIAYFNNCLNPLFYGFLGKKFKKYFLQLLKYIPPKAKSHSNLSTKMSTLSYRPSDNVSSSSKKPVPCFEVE
Type: functional, tissue-based
`CCCCCC[C@H](C(=O)N1C[C@H](Oc2ccc(CC(=O)O)cc2)C[C@@H]1C(=O)O)n1cnc(NC(=O)c2ccccc2S(=O)(=O)O)c1` showed a Kb of 191 nM.
Compound `CCCCCC[C@@H](C(=O)N1C[C@@H](Oc2ccc(CC(=O)O)cc2)C[C@H]1C(=O)O)n1cnc(NC(=O)c2ccccc2S(=O)(=O)O)c1` has a Kb of 4.5 nM.
`CCCCCC[C@@H](C(=O)N1C[C@@H](Oc2ccc(CC(=O)O)cc2)C[C@@H]1C(=O)O)n1cnc(NC(=O)c2ccccc2S(=O)(=O)O)c1` showed a Kb of 761 nM.
In the case of `CCCCCC[C@H](C(=O)N1C[C@@H](Oc2ccc(CC(=O)O)cc2)C[C@@H]1C(=O)O)n1cnc(NC(=O)c2ccccc2S(=O)(=O)O)c1`, the Kb is reported as 156 nM.
Compound `CCCCCC[C@H](C(=O)N1C[C@@H](Oc2ccc(CC(=O)O)cc2)C[C@H]1C(=O)O)n1cnc(NC(=O)c2ccccc2S(=O)(=O)O)c1` has a Kb of 0.12 nM.
`CCCCCC[C@@H](C(=O)N1C[C@H](Oc2ccc(CC(=O)O)cc2)C[C@@H]1C(=O)O)n1cnc(NC(=O)c2ccccc2S(=O)(=O)O)c1` showed a Kb of 489 nM.
Work on `CCCCCC[C@@H](C(=O)N1C[C@H](Oc2ccc(CC(=O)O)cc2)C[C@H]1C(=O)O)n1cnc(NC(=O)c2ccccc2S(=O)(=O)O)c1` yielded a Kb of 555 nM.
`CCCCCC[C@H](C(=O)N1C[C@H](Oc2ccc(CC(=O)O)cc2)C[C@H]1C(=O)O)n1cnc(NC(=O)c2ccccc2S(=O)(=O)O)c1` was tested, and the Kb was 503 nM.
